Experimental data reported in patent publication US20250002460A1, “SORTILIN INHIBITORS” (SORTINA PHARMA AB, priority 2021, published 2025).

Tests used:
human sortilin (sSORT) = molecular target: T1, human sortilin (sSORT) (Homo sapiens, UniProt Q99523); assay: Neurotensin competitive fluorescence polarization binding assay (FPA); conditions: mean IC50 values for sortilin inhibitors, IC50 (nM), 100 nM sSORT, 10 nM Neurotensin-Ahx-FITC, 1 h room temperature
T1 sequence (Q99523 78-756 limits assumed): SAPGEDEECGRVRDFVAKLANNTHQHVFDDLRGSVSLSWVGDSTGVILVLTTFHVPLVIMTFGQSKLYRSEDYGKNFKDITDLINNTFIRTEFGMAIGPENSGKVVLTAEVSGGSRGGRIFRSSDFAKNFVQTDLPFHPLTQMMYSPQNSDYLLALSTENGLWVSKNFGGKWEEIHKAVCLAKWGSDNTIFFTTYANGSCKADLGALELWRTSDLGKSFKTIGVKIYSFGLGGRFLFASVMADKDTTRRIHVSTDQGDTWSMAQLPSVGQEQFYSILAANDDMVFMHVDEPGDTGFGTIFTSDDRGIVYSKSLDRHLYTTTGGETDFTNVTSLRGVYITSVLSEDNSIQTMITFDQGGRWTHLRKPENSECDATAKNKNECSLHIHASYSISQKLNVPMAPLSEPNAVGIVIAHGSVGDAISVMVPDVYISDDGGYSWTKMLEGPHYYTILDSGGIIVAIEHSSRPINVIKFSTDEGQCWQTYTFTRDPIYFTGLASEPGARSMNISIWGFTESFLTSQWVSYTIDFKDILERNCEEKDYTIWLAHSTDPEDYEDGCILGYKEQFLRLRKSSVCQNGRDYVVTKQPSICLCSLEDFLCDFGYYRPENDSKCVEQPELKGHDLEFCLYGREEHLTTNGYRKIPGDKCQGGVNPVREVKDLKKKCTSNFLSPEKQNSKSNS
Procedure: Fresh 0.1% bovine serum albumin (BSA) was added to the assay buffer to obtain the final concentration: 50 mM HEPES, pH 7.4; 100 mM NaCl; 2.0 mM CaCl2; 0.1% BSA; 0.1% TWEEN® 20. The sortilin inhibitors of the invention and reference compounds (see Table 1) analyzed in the screen and neurotensin (used as an assay control) were serially diluted in ten different concentrations in assay buffer. In each well of a Nunc® MaxiSorp™ 384-well plate (Sigma Aldrich), 100 nM sSORT was mixed with pre-diluted sortilin inhibitors and 10 nM Neurotensin-Ahx-FITC in assay buffer adjusted to contain 1% DMSO in a final volume of 20 μl. The plate was then briefly centrifuged prior to 1 h incubation at room temperature in the dark.

[1] = tested on: MDA-MB-231 breast cancer cell line; assay: Secondary sphere formation assay in MDA-MB-231; type: cell-based; conditions: 48 hours; for baseline sphere formation, compound used alone: MDA-MB-231, without progranulin; for progranulin induced secondary sphere formation: MDA-MB-231, in combination with 500 nM progranulin
Procedure: (§1) C-terminal Progranulin (progranulin) (Casio, peptide sequence: […], SEQ ID NO: 5) were reconstituted in sterile PBS upon delivery, aliquoted and stored at −20° C. Working stock concentrations were achieved by dilution in culture media. […] 5% CO2 and 21% O2 before performing the primary followed by secondary sphere formation assay.
(§2) The sphere formation assay was performed as described previously (Mammary Gland Biol Neoplasia, 2012, 17(2): 111-117). Briefly, single cell suspensions were obtained following treatment with respective sortilin inhibitors SI1, SI5, SI8, SI25, SI32, SI39, SI51 and SI62 of the invention and seeded in phenol red-free DMEM/F-12 (Gibco®, Life Technologies), supplemented with 1% B27 supplement (Fisher Scientific, Invitrogen), 1% P/S and 20 ng/ml EGF (BD Biosciences) onto non-adherent polyhema-coated plates. After cultivation for five days, single cell suspensions were obtained from the primary spheres and seeded again in phenol red-free DMEM/F-12 supplemented with 1% B27 supplement, 1% P/S and 20 ng/ml EGF onto non-adherent polyhema-coated plates for 5-7 days. Subsequently, spheres greater than 50 μm in diameter were counted manually in the microscope.

[2] = tested on: melanoma cell line SK-MEL-30; assay: Sphere formation assay in SK-MEL-30; type: cell-based; conditions: SK-MEL-30, FIG. 6
Procedure: as §1, §2

MDA-MB-231 xenograft = MDA-MB-231 xenograft in vivo model, metastasis assessment; set-up: species or system NOD SCID gamma mice; conditions: compared to vehicle control; RC3 5-50 μg/day/mouse in drinking water for 21 days
Procedure: Luciferase tagged MDA-MB-231 cells were injected at a concentration of 0.2×10^6 cells subcutaneously into two sites of the flank of NOD SCID gamma mice (Taconic, Denmark). Cells were prepared in a 60% mixture of matrigel (growth factor reduced, BD Bioscience) and 40% complete media. The size of the tumors were determined by calliper measurement of the subcutaneous tumor mass two times per week and tumor volume was calculated according to the formula volume=(length×(width)^2/2). Assessments of metastasis were performed using the IVIS® whole body imager (PerkinElmer) based on luciferase expression from stably transfected cell lines.

[3] = tested on: colon cancer cell line HT-29; assay: Sphere formation assay in HT-29; type: cell-based; conditions: HT-29, FIG. 5
Procedure: as §1, §2

SMILES	IC50 (human sortilin (sSORT)) [nM]	baseline sphere formation, compound used alone [1]	progranulin induced secondary sphere formation [1]	melanoma cancer cell sphere formation [2]	lung metastasis / metastasis formation (MDA-MB-231 xenograft)	colon cancer cell sphere formation [3]
CC(C)(C)/C=C/C(NC(=O)c1cc(Cl)cs1)C(=O)O (stereo not shown) [SI32, (E)-2-(4-chloro-2-thienylcarbonylamino)-5,5-dimethyl-3-hexenoic acid]	52	reduced baseline sphere formation				
Cc1cccc(NC(=O)c2ccc(C(F)(F)F)cc2C(=O)O)n1 [RC3, 2-(N-6-Methyl-2-pyridylcarbamoyl)-5-(trifluoromethyl)benzoic acid, reference compound]		increased sphere formation	reduced sphere formation		induced lung metastasis	
CC(C)(C)/C=C/C(NC(=O)c1ccc(OCc2ccccc2)nc1)C(=O)O (stereo not shown) [SI39, (E)-2-[6-(benzyloxy)nicotinoylamino]-5,5-dimethyl-3-hexenoic acid]	65	reduced baseline sphere formation				

Further lines, with some results ahead:

IC50 (human sortilin (sSORT)) [nM]	SMILES	baseline sphere formation, compound used alone [1]	progranulin induced secondary sphere formation [1]	melanoma cancer cell sphere formation [2]	lung metastasis / metastasis formation (MDA-MB-231 xenograft)	colon cancer cell sphere formation [3]
31	CC(C)(C)/C=C/C(NC(=O)c1cccc(-n2ccnc2)c1)C(=O)O (stereo not shown) [SI25, (E)-5,5-dimethyl-2[m-(1-imidazolyl)benzoylamino]-3-hexenoic acid]	reduced baseline sphere formation				
43	CC(C)(C)/C=C/C(NC(=O)c1cc(Cl)c[nH]1)C(=O)O (stereo not shown) [SI8, (E)-2-(4-chloro-2-pyrrolylcarbonylamino)-5,5-dimethyl-3-hexenoic acid]	reduced baseline sphere formation	reduced sphere formation			
61	CC(C)(C)/C=C/C(NC(=O)c1cc(Cl)c(Cl)s1)C(=O)O (stereo not shown) [SI62, (E)-2-(4,5-dichloro-2-thienylcarbonylamino)-5,5-dimethyl-3-hexenoic acid]	reduced baseline sphere formation		reduced		
80	CC(C)(C)/C=C/C(NC(=O)c1ccc(-c2cccs2)cc1)C(=O)O (stereo not shown) [SI51, (E)-5,5-dimethyl-2-[p-(2-thienyl)benzoylamino]-3-hexenoic acid]	reduced baseline sphere formation				
17	CC(C)(C)/C=C/C(NC(=O)c1ccc(Oc2ccccc2)nc1)C(=O)O (racemic) [SI5, (E)-5,5-dimethyl-2-(6-phenoxynicotinoylamino)-3-hexenoic acid]	reduced baseline sphere formation	reduced sphere formation		reduced metastasis formation	reduced
